# From patent US8865659B2, “Compositions for prevention or treatment of Hepatitis C virus containing ginsenoside Rg3 as an active ingredient” (priority 2012, dated 2014)
# Experiments:
# [1] = tested on: Huh 7.5.1 cells infected with JFH-1 virus; experiment: Microscopic identification of virus suppression effect (cell shape, phase contrast microscope); type: cell-based; conditions: 100 μM; for shapes of Huh 7.5.1 cells: JFH-1 infected
# Description: About 200,000 Huh 7.5.1 cells were added to a 60×15 mm cell culture dish and every 100 μM of seven ginsenosides (Ro, Re, Rg1, Rg2, Rg3, Rh1, Rh2) per 60×15 mm cell culture dish each was treated. Since it was necessary for ginsenosides in powder formulation to make solutions for the experiments, 50 mM basic concentration solutions for the seven ginsenosides each were prepared and the basic solutions were refrigerated at 4° C. until they were needed.
# Non-treatment group (Control), Non-treatment group and DMSO 10 μl treatment group (Control+DMSO 10 μl), JFH-1 virus treatment group (Only JFH-1), JFH-1 virus and DMSO 10 μl treatments group (JFH-1+DMSO 10 μl), JFH-1 virus and Ro 100 uM treatments group (JFH-1+Ro 100 uM), JFH-1 virus and Re 100 uM treatments group (JFH-1+Re 100 uM), JFH-1 virus and Rg1 100 uM treatments group (JFH-1+Rg1 100 uM), JFH-1 virus and Rg2 100 uM treatments group (JFH-1+Rg2 100 uM), JFH-1 virus and Rg3 100 uM treatments group (JFH-1+Rg3 100 uM), JFH-1 virus and Rh1 100 uM treatments group (JFH-1+Rh1 100 uM), JFH-1 virus and Rh2 100 uM treatments group (JFH-1+Rh2 100 uM), JFH-1 virus and Rg1 100 uM treatments group (JFH-1+Rg1 100 uM).
# (§1) The experiment was carried out as follow. First, 200,000 Huh 7.5.1 cells were placed in a 60×15 mm cell culture dish. Next day, Japanese Fulminant Hepatitis-1 virus (JFH-1) stock vial which was stored in −70° C. refrigerator was taken out and thawed out in a container filled with ice-water. The culture medium was collected from the cultured 60×15 mm cell culture dish, washed with 1×PBS and collected, again. 1.5 ml of JFH-1 virus solution per 60×15 mm cell culture dish each was added. The dish was shaken to cover the surface sufficiently. The dish was laid in a 5% CO2 incubator at 37° C. for 6 hours and after that, the supernatant was draw out. 1×PBS was spread on the cell surface as slow as possible and after one time washing, cells were collected. 5 ml of cell culture media was added to control and JFH-1 treatments groups. At the last step of virus-infection, 5 ml CM and each […] of ginsenosides which was set to 50 mM concentration were added to the cell culture media. After that, the cell culture media was laid in a 5% CO2 incubator at 37° C. After 72 hours, the following steps were carried out.
# As described in the above Example 3, each 100 μM of seven ginsenosides (Ro, Re, Rg1, Rg2, Rg3, Rh1, Rh2) was treated to Huh 7.5.1 cells. After 24 hours and 72 hours, the shapes of Huh 7.5.1 cells were observed using a phase contrast microscope (ECLIPSE TE300, Nicon) of 400× magnifications.
# HCV CORE = experiment: Western blotting against HCV CORE in JFH-1 infected Huh 7.5.1 cells; type: cell-based, Hepatitis C virus (JFH-1); conditions: 10 μM, 25 μM and 50 μM
# Description: as §1
# As described in the above Example 3, the Huh 7.5.1 cells were treated with each 100 μM of seven ginsenosides (Ro, Re, Rg1, Rg2, Rg3, Rh1, Rh2). After 72 hours, a western blotting analysis was carried out for analyzing virus suppression effect against HCV CORE and cleaved PARP.
# Specific western blotting analysis carried out was as follow. First, the above described samples were prepared, mixed with a sample buffer in tubes and heated at 100° C. for 10 minutes. The tubes were cooled on ice and centrifuged. The electrophoresis was carried out with the above samples and molecular weight markers, and then they were transferred to a PVDF membrane (hydrophobic). After blocking with 5% skin milk for an hour, each primary antibody was added. After staying overnight at 4° C., washings three times for every 10 minutes were conducted, and the blocking was carried out with 5% skin milk for an hour at the room temperature. After that, each secondary antibody was added, and the reaction for an hour and washing three times for every 10 minutes were conducted. Then, the membrane was stained by 1:1 mix with detection reagents A (Luminol Enhancer solution) and B (Peroxide solution) and developed with X ray film.
# To examine the dose-dependent anti-virus effect of ginsenoside Rg3, western blotting analysis against cleaved PARP and HCV CORE were carried out with the samples of ginsenosides Rg3 treatment concentration at 10 μM, 25 μM, 50 μM and 100 μM each.
# To examine the dose-dependent anti-virus effect of ginsenoside Rh2, western blotting analysis against cleaved PARP and HCV CORE were carried out with the samples of ginsenosides Rh2 treatment concentration at 10 μM, 25 μM and 50 μM each. […]
# [2] = tested on: JFH-1 virus infected Huh 7.5.1 cell; experiment: MTT assay, cytotoxicity of ginsenosides on liver cancer cell line; type: cell-based; conditions: 100 μM, 72 hours
# Description: MTT assay was conducted to identify cytotoxicity of ginsenosides.
# Specifically, the cells (Huh7.5.1) were seeded at the rate of 1×10^4 cells (in 100 μL)/well in 96 well plates, and incubated in 5% CO2 incubator for less than 24 hours. And after the samples were washed with 1×PBS once and treated with the rate of 50 ul JFH-1 virus/well, and replaced in the 5%, CO2 incubator for six hours. After taking out the cell samples from the incubator, the samples were washed with 1×PBS once and replaced in the culturing media comprising 10, 25, 50 and 100 μL concentration of the above stated seven (7) ginsenosides in Example 3, respectively. After the cells were incubated in 5% CO2 incubator for 72 hours, 20 μl of assay reagent, EZ Cytox, was seeded into each well with the care of no bubble producing. And then, the treated cells were incubated in 5% CO2 incubator for 2.5 hours, followed by examining absorbance at 420 nm with Microplate Reader (Molecular Devices, Minn.). DMSO was the solvent used when treating with ginsenoside, and both the control group and the cells infected with JFH-1 group were also treated with the solvent DMSO.
structure (smiles),measurement,setting,value
"CC(C)=CCC[C@](C)(O)[C@H]1CC[C@]2(C)[C@@H]1[C@H](O)C[C@@H]1[C@@]3(C)CC[C@H](O[C@@H]4O[C@H](CO)[C@@H](O)[C@H](O)[C@H]4O)C(C)(C)[C@@H]3CC[C@]12C [ginsenoside Rh2, reference compound]",cell survival under treatment,[1],all cells became extinct
same,shapes of Huh 7.5.1 cells,[1]; 24 hours after treatment,No cell were remained due to the apoptosis of all cells
same,shapes of Huh 7.5.1 cells,[1]; 72 hours after treatment,No cell were remained due to the apoptosis of all cells
same,"virus suppression effect (HCV CORE), dose dependence",HCV CORE,dose-dependent manner
same,cytotoxicity (MTT assay),[2],cytotoxic effect was shown predominantly
